# Results reported in publication PMC9858427, “Design, synthesis and biological evaluation of 2-((4-sulfamoylphenyl)amino)-pyrrolo[2,3-d]pyrimidine derivatives as CDK inhibitors” (Journal of Enzyme Inhibition and Medicinal Chemistry, 2023).
# Tests used:
# AsPC-1 = experiment: MTT proliferation assay in AsPC-1 cells; type: cell-based; conditions: Homo sapiens, ASPC1; 72 h drug exposure
# Procedure: The human pancreatic carcinoma MIA PaCa-2 was purchased from China Centre for Type Culture Collection, AsPC-1 and BxPC-3 cell Lines were purchased from Cell Centre of the Institute of Basic Medical Sciences, Chinese Academy of Medical Sciences and Peking Union Medical College. PANC-1 was kindly provided by Nankai Hospital (Tianjin, China). These cancer cell lines were cultured according to the manufacturer’s instruction.
# Cells were planted in 96-well plates at a density of 3000–4000 cells per well and incubated at 37 °C in a humidified CO2 incubator for 24 h. Then 3-fold diluted concentrations of tested compound were added respectively which was dissolved by DMSO in the ratio of 1:1000. After indicated incubation period, MTT was added to each well and incubated for 4 h at 37 °C. Then, the supernatant was discarded gently, and the precipitate was dissolved in 100 µL of DMSO in each well. The absorbance (A) at 570 nm was detected with a microplate reader (Multiskan MK3; Thermo Fisher Scientific, MA, USA). Vehicle-treated cells were served as the control for the calculation of relative cell viability (%) of treated group at single concentration. IC50 value was calculated directly from the inhibition curve of serial dilution of test compound and was expressed as mean ± SD using the SPSS statistical software (SPSS17.0 Inc., Chicago, IL, USA).
# CDK9/cyclinT1 = CDK9/cyclinT1 (Homo sapiens, UniProt P50750); experiment: CDK9/cyclinT1 Lance Ultra Assay, single concentration screen; type: biochemical; conditions: 50 nM, ATP concentration at Km, read-out: CDK9 inhibitory rate (%) @ 50nM
# Procedure: (§1) CDK kinase activity (IC50 values and inhibitory rate at single concentration) was measured using the kinase profiling services (Shanghai ChemPartner Co., Ltd). Compounds were sent to ChemPartner as a solution in DMSO at concentration of 10 mM.
# CDK4 = CDK4 (Homo sapiens, UniProt P11802); experiment: CDK4 kinase IC50, Mobility shift assay; type: biochemical
# Procedure: as §1
# CDK7 = CDK7 (Homo sapiens, UniProt P50613); experiment: CDK7 kinase IC50, Mobility shift assay; type: biochemical
# Procedure: as §1
# CDK9 = CDK9 (Homo sapiens, UniProt P50750); experiment: CDK9 kinase IC50, Mobility shift assay; type: biochemical
# Procedure: as §1
# MIA PaCa-2 cells [1] = experiment: Cell cycle analysis by PI staining and flow cytometry; type: cell-based, human; conditions: 24 h treatment
# Procedure: (§2) MIA PaCa-2 cells were incubated with test compound at given concentration for indicated time in 6 well plates. The cells were collected and washed with cold PBS for two times. For cell cycle analysis, cells were fixed with 1 ml of 70% ethanol at −20 °C overnight then re-suspended with 400 µL binding buffer at density of 10^6 cells/mL, with PI staining for 30 min at room temperature. DNA contents were analysed by a BD Accuri C6 flow cytometry (BD Biosciences, Mountain View, CA, USA). For cell apoptosis analysis, after centrifugation and removal of the supernatants, cells were resuspended in 500 µL of 1 ×binding buffer which was then added to 5 µL of annexin V-FITC and incubated at room temperature for 10 min. After adding 10 µL of PI the cells were incubated at room temperature for another 10 min, and their fluorescence intensity evaluated by a BD Accuri C6 (BD Biosciences, Mountain View, CA, USA).
# MIA PaCa-2 cells [2] = experiment: Apoptosis analysis by PI and annexin V-FITC staining and flow cytometry; type: cell-based, human; conditions: 24 h treatment
# Procedure: as §2
# [3] = system: AsPC-1 cell-derived xenograft; experiment: AsPC-1 cell-derived xenograft mice model, in vivo efficacy; design: species or system BALB/C nude mice; conditions: five days on two days off per week
# Procedure: Synthetic compound was administered as a suspension or solution in the saline with 5% DMSO and 5% Solutol. GCTB was dissolved in saline. All of the experiments were approved by the Institutional Animal Care and Use Committee of Institute of Medicinal Biotechnology. All experiments were carried out under ethics committee–approved protocols and in compliance with the guidelines for the care of laboratory animals of Institute of Medicinal Biotechnology, CAMS.
# AsPC-1 (5 × 10^7) cells were injected subcutaneously into 5-week-old female BALB/C nude mice (Beijing Huafukang Bioscience CO. Inc, Beijing, China). After two weeks, mice were omogenizamised and treated with vehicle, gemcitabine (GCTB), or test compound. Blank solvent and test compound was administered by oral gavage (10 ml/kg) with once daily of five days and followed by 2 days off in each week, GCTB was given once a week by 50 mg/kg intraperitoneal injection. Mice were inspected daily for clinical signs, both tumour diameters and body weight were determined 3 times weekly. Tumour volumes were calculated according to the formula “tumor volume (V) = length × width^2/2”. Median TGI values were calculated as follows: TGI = 100 × [1-(Vtreated group at day20-Vtreated group at day1)/(Vvehicle group at day20-Vvehicle group at day1)]. Data were plotted as average with SD in the graphical representation of tumour growth. The p values obtained from the two-way ANOVA analysis. Meanwhile, main organs of mice were collected, formalin-fixed and paraffin-embedded for pathological analysis by H&E dyeing. For drug concentration determination, blood and tumour tissues were collected at indicated time after single administration. Standard curve of test compound was established in the acquisition mode of SIM using a SHIMADZU LC-MS instrument. […] After centrifugation at 10 × 10^3 for 5 min, the supernatant was injected directedly into LC-MS instrument for quantification of drug concentration. […] After centrifugation under same condition as plasma samples, supernatant was separated and injected into LC-MS for quantification.
# [4] = Solubility / precipitation observations; type: physicochemical
# [5] = Body weight and H&E pathology of main organs in xenograft mice; type: in vivo, BALB/C nude mice
# Procedure: AsPC-1 (5 × 10^7) cells were injected subcutaneously into 5-week-old female BALB/C nude mice (Beijing Huafukang Bioscience CO. Inc, Beijing, China). After two weeks, mice were omogenizamised and treated with vehicle, gemcitabine (GCTB), or test compound. Blank solvent and test compound was administered by oral gavage (10 ml/kg) with once daily of five days and followed by 2 days off in each week, GCTB was given once a week by 50 mg/kg intraperitoneal injection. Mice were inspected daily for clinical signs, both tumour diameters and body weight were determined 3 times weekly. Tumour volumes were calculated according to the formula “tumor volume (V) = length × width^2/2”. Median TGI values were calculated as follows: TGI = 100 × [1-(Vtreated group at day20-Vtreated group at day1)/(Vvehicle group at day20-Vvehicle group at day1)]. Data were plotted as average with SD in the graphical representation of tumour growth. The p values obtained from the two-way ANOVA analysis. Meanwhile, main organs of mice were collected, formalin-fixed and paraffin-embedded for pathological analysis by H&E dyeing. For drug concentration determination, blood and tumour tissues were collected at indicated time after single administration. Standard curve of test compound was established in the acquisition mode of SIM using a SHIMADZU LC-MS instrument. Blood kept in anticoagulant tube coated with heparin sodium was centrifuged to provide the supernatant, which was followed by added with 3-fold acetonitrile to precipitate plasma protein. After centrifugation at 10 × 10^3 for 5 min, the supernatant was injected directedly into LC-MS instrument for quantification of drug concentration. As for tumour tissues, omogenizationation (Precellys Evolution) was done after weighed accurately and added with 3-fold saline. After centrifugation under same condition as plasma samples, supernatant was separated and injected into LC-MS for quantification.
# Chain of CDK9 (P50750 whole entry): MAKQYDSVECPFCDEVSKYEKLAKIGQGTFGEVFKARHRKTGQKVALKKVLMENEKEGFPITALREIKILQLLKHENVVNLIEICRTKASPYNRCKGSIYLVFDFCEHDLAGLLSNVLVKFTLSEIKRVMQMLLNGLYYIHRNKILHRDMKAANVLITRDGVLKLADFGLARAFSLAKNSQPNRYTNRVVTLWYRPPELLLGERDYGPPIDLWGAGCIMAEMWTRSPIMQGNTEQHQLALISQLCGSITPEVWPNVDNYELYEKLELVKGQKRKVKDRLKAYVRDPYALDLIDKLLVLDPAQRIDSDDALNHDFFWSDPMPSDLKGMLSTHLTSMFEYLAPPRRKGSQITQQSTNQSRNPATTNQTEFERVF
# Chain of CDK9 (O60563 whole entry partner): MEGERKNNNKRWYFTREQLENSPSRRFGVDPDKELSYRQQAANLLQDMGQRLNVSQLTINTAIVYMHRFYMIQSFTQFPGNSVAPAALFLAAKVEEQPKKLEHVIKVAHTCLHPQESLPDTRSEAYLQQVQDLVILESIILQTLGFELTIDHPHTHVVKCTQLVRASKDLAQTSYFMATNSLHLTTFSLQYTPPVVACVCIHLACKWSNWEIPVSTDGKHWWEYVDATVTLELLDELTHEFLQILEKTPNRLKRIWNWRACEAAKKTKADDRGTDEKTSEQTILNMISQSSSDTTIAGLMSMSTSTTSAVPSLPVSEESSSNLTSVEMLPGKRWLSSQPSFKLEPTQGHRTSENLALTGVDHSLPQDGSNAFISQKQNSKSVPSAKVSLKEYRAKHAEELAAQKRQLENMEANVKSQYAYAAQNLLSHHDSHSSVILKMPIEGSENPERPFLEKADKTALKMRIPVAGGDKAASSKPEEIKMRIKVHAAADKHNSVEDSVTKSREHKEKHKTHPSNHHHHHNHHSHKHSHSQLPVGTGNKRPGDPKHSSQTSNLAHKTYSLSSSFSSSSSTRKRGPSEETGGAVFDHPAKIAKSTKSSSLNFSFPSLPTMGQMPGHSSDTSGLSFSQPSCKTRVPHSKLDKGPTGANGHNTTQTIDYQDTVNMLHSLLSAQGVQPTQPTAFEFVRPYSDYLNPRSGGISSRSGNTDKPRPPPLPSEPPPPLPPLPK
# Chain of CDK9/cyclinT1 (P50750 whole entry): as the sequence (P50750 whole entry) above
# Chain of CDK9/cyclinT1 (O60563 whole entry partner): as the sequence (O60563 whole entry partner) above
# Chain of CDK7 (P50613 whole entry): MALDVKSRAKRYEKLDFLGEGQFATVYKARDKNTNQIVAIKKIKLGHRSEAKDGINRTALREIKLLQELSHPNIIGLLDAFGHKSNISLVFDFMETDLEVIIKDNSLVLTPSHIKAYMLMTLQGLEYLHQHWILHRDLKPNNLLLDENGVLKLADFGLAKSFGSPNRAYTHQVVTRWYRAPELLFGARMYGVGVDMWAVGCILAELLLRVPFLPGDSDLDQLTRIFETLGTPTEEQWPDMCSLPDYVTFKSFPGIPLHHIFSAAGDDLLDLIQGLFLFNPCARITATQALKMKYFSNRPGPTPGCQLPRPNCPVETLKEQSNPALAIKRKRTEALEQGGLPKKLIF
# Chain of CDK7 (P51946 whole entry partner): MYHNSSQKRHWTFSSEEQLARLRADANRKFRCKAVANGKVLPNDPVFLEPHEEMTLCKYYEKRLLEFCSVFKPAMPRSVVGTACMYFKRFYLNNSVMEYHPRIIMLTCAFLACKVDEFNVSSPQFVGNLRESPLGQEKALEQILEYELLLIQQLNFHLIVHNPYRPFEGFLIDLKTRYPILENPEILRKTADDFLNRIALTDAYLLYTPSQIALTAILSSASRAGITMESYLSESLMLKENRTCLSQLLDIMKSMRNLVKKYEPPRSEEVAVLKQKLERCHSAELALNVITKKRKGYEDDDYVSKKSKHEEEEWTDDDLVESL
# Chain of CDK7 (P51948 whole entry partner): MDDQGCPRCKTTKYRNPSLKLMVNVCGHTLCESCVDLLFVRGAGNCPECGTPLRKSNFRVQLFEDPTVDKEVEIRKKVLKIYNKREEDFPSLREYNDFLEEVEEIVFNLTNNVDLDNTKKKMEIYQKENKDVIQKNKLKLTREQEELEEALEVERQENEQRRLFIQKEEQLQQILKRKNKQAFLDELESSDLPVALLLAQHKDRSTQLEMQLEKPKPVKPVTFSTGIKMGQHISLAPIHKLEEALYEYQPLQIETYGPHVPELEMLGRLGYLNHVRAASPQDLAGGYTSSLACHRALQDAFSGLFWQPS
# Chain of CDK4 (P11802 whole entry): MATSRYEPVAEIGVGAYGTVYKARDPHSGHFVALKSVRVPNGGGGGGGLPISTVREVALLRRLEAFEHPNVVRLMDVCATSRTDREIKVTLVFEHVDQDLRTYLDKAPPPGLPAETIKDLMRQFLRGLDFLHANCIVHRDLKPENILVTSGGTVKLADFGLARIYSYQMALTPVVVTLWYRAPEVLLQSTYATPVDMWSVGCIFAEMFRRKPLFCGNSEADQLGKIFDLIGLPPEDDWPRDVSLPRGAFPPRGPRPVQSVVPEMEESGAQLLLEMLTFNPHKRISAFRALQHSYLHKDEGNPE
# Chain of CDK4 (P30281 whole entry partner): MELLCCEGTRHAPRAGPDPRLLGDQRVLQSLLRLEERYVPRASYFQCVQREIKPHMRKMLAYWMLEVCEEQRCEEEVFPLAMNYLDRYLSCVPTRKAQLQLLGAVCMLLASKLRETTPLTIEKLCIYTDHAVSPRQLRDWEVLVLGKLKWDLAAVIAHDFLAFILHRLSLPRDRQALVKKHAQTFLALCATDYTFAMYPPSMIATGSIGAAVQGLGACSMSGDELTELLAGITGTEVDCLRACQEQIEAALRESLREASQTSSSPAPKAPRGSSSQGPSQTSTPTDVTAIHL
compound,measurement,setting,value
"CN(C)C(=O)c1cc2cnc(Nc3ccc(S(N)(=O)=O)cc3)nc2n1C1CCCC1 [compound 2g, 7-Cyclopentyl-N,N-dimethyl-2-((4-sulfamoylphenyl)amino)-7H-pyrrolo[2,3-d]pyrimidine-6-carboxamide]",IC50,AsPC-1,1.4 ± 0.034 µM
same,inhibition at 0.05 µM,CDK9/cyclinT1,97.8%
same,IC50,CDK4,12 nM
same,IC50,CDK7,> 10000 nM
same,IC50,CDK9,5 nM
same,effect on cell cycle,MIA PaCa-2 cells [1]; 0.1 µM,cell cycle arrest at G1 phase
same,effect on cell cycle,MIA PaCa-2 cells [1]; 0.3 and 1.0 µM,modest G2/M-arrested effect
same,number of late apoptotic cells,MIA PaCa-2 cells [2],increased in a dose-dependent manner
same,tumour growth inhibition (TGI),"[3]; oral 30 mg/kg, 3-week administration",12%
same,reduction of tumour volume compared to vehicle group,"[3]; oral 60 mg/kg, 3 weeks",up to 46%
same,solubility (in words),[4],much poorer than 5b
same,pathological change in main organs (H&E),[5]; after 3-week treatment,no obvious pathological change
same,body weight change,"[5]; high dose of 2g, first ten days of administration",obvious decrease of body weight
